Data reported in EP0318240A2, “Peptide, adsorbent, method for production thereof, and method for use thereof” (AGENCY OF INDUSTRIAL SCIENCE & TECHNOLOGY MINISTRY OF …, priority 1987, dated 1989).

Experiment: Solubility of peptide in the phosphate buffer solution used for immobilization
Type: physicochemical
Conditions: phosphate buffer solution (0.02 mol/liter) of pH 7.4
Protocol: • (a) In 50 ml of dioxane obtained by distillation in the presence of sodium metal, 10 g of cellulose particles (marketed by Seikagaku Kogyo Co., Ltd. under the tradename "CM-Cellulofine CH") were suspended. In the suspension, 0.5 g of N-hydroxysuccinimide and 1.0 g of dicyclohexylcarbodiimide added thereto were shaken overnight at room temperature. The resultant mixture was washed with a phosphate buffer solution (0.02 mol/liter) of pH 7.4 and suction filtered. The particles consequently obtained and 20 ml of a phosphate buffer solution (0.02 mol/liter) of pH 7.4 containing 20 mg of the peptide of Example 1 added thereto were stirred overnight at a temperature of 4°C. The mixture consequently obtained was suction filtered. […] Thus, about 10 g of cellulose particles (the adsorbent not heat treated) having immobilized thereon 20 mg of the peptide of Example 1 were obtained. • (b) In 5-ml aliquots of a phosphate buffer solution (0.02 mol/liter) of pH 7.4 containing sodium chloride in a concentration of 0.15 mol/liter, the peptide-immobilized cellulose particles obtained as described above were suspended in a unit amount of 1 g. […]

In the case of “H-Leu-Leu-Gly-Trp-Lys-His-Trp-Val-Tyr-Tyr-Thr- C y s - C^y s -Pro-Asp-Thr-Pro-Tyr-Leu-Asp-OH [Referential Example 2]”, the “solubility in the phosphate buffer solution” value is reported as “low solubility”.
